Test results reported in article PMC6270398, “Synthesis and Promising in Vitro Antiproliferative Activity of Sulfones of a 5-Nitrothiazole Series” (Molecules, 2012).

Key:
CHO cells = experiment: In vitro cytotoxicity evaluation on CHO cell line (MTT method); format: cell-based; details: for CC50: Cricetulus griseus, 24 h incubation with product, mean ± SD of three independent experiments, read-out: Cancer cell toxicity CHO CC50
Method: (§1) The antiproliferative activity of the synthesized compounds was evaluated against two different cancer cell lines, CHO and HepG2, employing the MTT method and doxorubicin as a reference drug. The cytotoxic activity in vitro was expressed as CC50 (µM), the concentration of compound that inhibits proliferation of cells by 50% as compared to untreated cells.
(§2) CHO and HepG2 cell lines were maintained at 37 °C, 6% CO2, 14% O2, 80% N2, with 90% humidity in RPMI supplemented with 10% fœtal bovine serum, 1% L-glutamine (200 mM) and penicillin (100 U/mL) / streptomycin (100 µg/mL) (complete RPMI medium).
(§3) In vitro cytotoxicity evaluation on CHO and HepG2 cell lines was performed according to the method described by Mosmann with slight modifications. Briefly, 5 × 10^3 cells in 100 µL of culture medium (RPMI + […]) were inoculated into each well of 96-well plates and incubated at 37 °C in a humidified 6% CO2, 14% O2, 80% N2 atmosphere. After 24 h incubation, 100 µL of medium with various product concentrations was added and the plates were incubated from 24 h (CHO) to 72 h (HepG2). Duplicate assays were performed for each sample. At the end of the treatment and incubation, the medium was aspirated from the wells and 10 µL yellow MTT (3-(4,5-dimethyl-2-thiazolyl)-2,5-diphenyl-2H-tetrazolium bromide) solution (5 mg MTT/mL in PBS) was added to each well with 100 µL of medium without fœtal bovine serum. Cells were incubated for 2 h at 37 °C to allow MTT […] by mitochondrial dehydrogenase in the viable cells. After 2 h, the MTT solution was aspirated and DMSO (100 µL) was added to each well to dissolve the resulting blue formazan crystals. Plates were then shaken vigorously (300 rpm) for a few minutes. The absorbance was measured at 570 nm with 630 nm as reference wavelength, using a microplate spectrophotometer. DMSO was used as blank and doxorubicin as positive control.
(§4) Cell viability was calculated as percentage of control (cells incubated without compound). The 50% cytotoxic concentrations (CHO CC50 and HepG2 CC50) were determined by non-linear regression analysis processed on dose-response curves, using the Table Curve software 2D v.5.0. CC50 values represent the mean value calculated from three independent experiments.

HepG2 cells = experiment: In vitro cytotoxicity evaluation on HepG2 cell line (MTT method); format: cell-based, human; details: for CC50: Homo sapiens, 72 h incubation with product, mean ± SD of three independent experiments, read-out: Cancer cell toxicity HepG2 CC50; for CC50 / antiproliferative activity on HepG2 cells (in words): HepG2 cell line, MTT; for antiproliferative effect times higher toward the HepG2 than toward the CHO cell line: ratio CHO CC50 / HepG2 CC50
Method: as §1, §2, §3, §4

Row | melting point | SMILES | CC50 (CHO cells) | CC50 (HepG2 cells) | antiproliferative effect times higher toward the HepG2 than toward the CHO cell line (HepG2 cells) | antiproliferative activity on CHO cells (in words) (CHO cells) | antiproliferative activity on HepG2 cells (in words) (HepG2 cells)
1 | 169 °C | Cc1nc(C(Cl)(Cl)S(=O)(=O)c2ccccc2)c([N+](=O)[O-])s1 [3a, 4-[Dichloro(phenylsulfonyl)methyl]-2-methyl-5-nitro-1,3-thiazole] | 2.5 µM | 1.2 µM | – | – | –
2 | 165 °C | Cc1nc(C(Cl)(Cl)S(=O)(=O)c2ccc(Br)cc2)c([N+](=O)[O-])s1 [3d, 4-[(4-Bromophenylsulfonyl)dichloromethyl]-2-methyl-5-nitro-1,3-thiazole] | 1.3 µM | 1.2 µM | – | – | –
3 | 145 °C | Cc1nc(C(Cl)(Cl)S(=O)(=O)c2ccc(F)cc2)c([N+](=O)[O-])s1 [3e, 4-[Dichloro(4-fluorophenylsulfonyl)methyl]-2-methyl-5-nitro-1,3-thiazole] | 1.3 µM | 1.2 µM | – | – | –

Continued, compound first:

Row | SMILES | melting point | CC50 (CHO cells) | CC50 (HepG2 cells) | antiproliferative effect times higher toward the HepG2 than toward the CHO cell line (HepG2 cells) | antiproliferative activity on CHO cells (in words) (CHO cells) | antiproliferative activity on HepG2 cells (in words) (HepG2 cells)
4 | Cc1nc(CS(=O)(=O)c2ccccc2)c([N+](=O)[O-])s1 [2a, 2-methyl-5-nitro-4-phenylsulfonylmethyl-1,3-thiazole] | – | 323 µM | 24.6 µM | – | – | –
5 | Cc1ccc(S(=O)(=O)Cc2nc(C)sc2[N+](=O)[O-])cc1 [2b, 2-Methyl-5-nitro-4-(tosylmethyl)-1,3-thiazole] | 179 °C | 237 µM | 7.7 µM | 31 times | – | –
6 | Cc1nc(CS(=O)(=O)c2ccc(Cl)cc2)c([N+](=O)[O-])s1 [2c, 4-[(4-Chlorophenylsulfonyl)methyl]-2-methyl-5-nitro-1,3-thiazole] | 180 °C | > 62.5 µM | 13.4 µM | – | – | –
7 | Cc1nc(CS(=O)(=O)c2ccc(Br)cc2)c([N+](=O)[O-])s1 [2d, 4-[(4-Bromophenylsulfonyl)methyl]-2-methyl-5-nitro-1,3-thiazole] | – | > 500 µM | 11.7 µM | 43 times | – | –
8 | Cc1nc(CS(=O)(=O)c2ccc(F)cc2)c([N+](=O)[O-])s1 [2e, 4-[(4-Fluorophenylsulfonyl)methyl]-2-methyl-5-nitro-1,3-thiazole] | – | 229 µM | 19.3 µM | – | – | –
9 | Cc1nc(CS(=O)(=O)c2cccc(F)c2)c([N+](=O)[O-])s1 [2f, 4-[(3-Fluorophenylsulfonyl)methyl]-2-methyl-5-nitro-1,3-thiazole] | 154 °C | 321 µM | 23.6 µM | – | – | –
10 | Cc1nc(CS(=O)(=O)c2cccc(C(F)(F)F)c2)c([N+](=O)[O-])s1 [2g, 2-Methyl-5-nitro-4-{[3-(trifluoromethyl)phenylsulfonyl]methyl}-1,3-thiazole] | 121 °C | 139 µM | 25.6 µM | – | – | –
11 | COc1ccc(S(=O)(=O)Cc2nc(C)sc2[N+](=O)[O-])cc1 [2h, 4-[(4-Methoxyphenylsulfonyl)methyl]-2-methyl-5-nitro-1,3-thiazole] | – | 137 µM | 20.6 µM | – | – | –
12 | CCc1ccc(S(=O)(=O)Cc2nc(C)sc2[N+](=O)[O-])cc1 [2i, 4-[(4-Ethylphenylsulfonyl)methyl]-2-methyl-5-nitro-1,3-thiazole] | – | > 500 µM | 239 µM | – | no activity was observed | no activity was observed
13 | Cc1nc(CS(C)(=O)=O)c([N+](=O)[O-])s1 [2j, 2-Methyl-4-(methylsulfonylmethyl)-5-nitro-1,3-thiazole] | 127 °C | > 250 µM | > 250 µM | – | no activity was observed | no activity was observed
14 | Cc1nc(CS(=O)(=O)c2ccc(Br)s2)c([N+](=O)[O-])s1 [2k, 4-[(5-Bromothiophen-2-ylsulfonyl)methyl]-2-methyl-5-nitro-1,3-thiazole] | – | 47.3 µM | 13.8 µM | – | – | –
15 | Cc1nc(CS(=O)(=O)c2ccc3ccccc3c2)c([N+](=O)[O-])s1 [2l, 2-Methyl-4-[(naphtalen-2-ylsulfonyl)methyl]-5-nitro-1,3-thiazole] | 163 °C | 106 µM | 8.5 µM | – | – | –
16 | Cc1ccc(S(=O)(=O)C(Cl)(Cl)c2nc(C)sc2[N+](=O)[O-])cc1 [3b, 4-[Dichloro(tosyl)methyl]-2-methyl-5-nitro-1,3-thiazole] | – | 1.2 µM | 1 µM | – | – | –
17 | Cc1nc(C(Cl)(Cl)S(=O)(=O)c2ccc(Cl)cc2)c([N+](=O)[O-])s1 [3c, 4-[Dichloro(4-chlorophenylsulfonyl)methyl]-2-methyl-5-nitro-1,3-thiazole] | – | 1.4 µM | 1.1 µM | – | – | –
18 | COc1cccc2c1C(=O)c1c(O)c3c(c(O)c1C2=O)C[C@@](O)(C(=O)CO)C[C@@H]3O[C@H]1C[C@H](N)[C@H](O)[C@H](C)O1 [Doxorubicin, reference compound] | – | 0.6 µM | 0.2 µM | – | – | –
